# According to PubChem BioAssay AID1259411 (Chemical Carcinogenesis Research Information System (CCRIS), 2018):
# Activity calls are given as the source filed them. How the calls were made is not given here.
# Tested on: rodent carcinogenicity bioassays, tumor incidence
# Assay: CCRIS carcinogenicity studies
# Procedure, shortened: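 NCI-built, expert-reviewed records of carcinogenicity and related test outcomes (mutagenicity, tumor promotion/inhibition) compiled from published and report sources, historical span 1985-2011, not updated.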
structure (smiles),measurement,setting,value
C=O,carcinogen call,"Species: Hamster, Strain/Sex: Syrian golden/Male (132/Control group; 88/Experimental group), Route: Inhalation, Dose: 10 ppm 5 hr/day, 5 d/wk for life, study duration was lifetime of the animal",inactive; negative
same,carcinogen call,"Species: Mouse, Strain/Sex: B6C3F1/Female (120/Group with sacrifices at 6, 12 and 24 mo), Route: Inhalation, Dose: 0, 2, 6, 15 ppm 6 hr/d, 5 d/wk for 24 mo, study duration 24 mo, Dose: 0, 2, 6, 15 ppm 6 hr/d, 5 d/wk for 24 mo, study duration 24 mo",inactive; negative. dose-related non-neoplastic nasal lesions were observed.
same,carcinogen call,"Species: Mouse, Strain/Sex: B6C3F1/Male (120/Group with sacrifices at 6, 12 and 24 mo), Route: Inhalation, Dose: 0, 2, 6, 15 ppm 6 hr/d, 5 d/wk for 24 mo, study duration 24 mo, Dose: 0, 2, 6, 15 ppm 6 hr/d, 5 d/wk for 24 mo, study duration 24 mo, Tumor Site: Type of Lesion: Nasal passages",active; positive. dose-related non-neoplastic nasal lesions also observed.
same,carcinogen call,"Species: RAT, Strain/Sex: F344/FEMALE, Route: INHALATION, Dose: 0, 2, 6, 15 PPM, Dose: 0, 2, 6, 15 PPM, Tumor Site: Type of Lesion: NASAL TURBINATES: SQUAMOUS CELL CARCINOMA",active; positive
same,carcinogen call,"Species: RAT, Strain/Sex: F344/MALE, Route: INHALATION, Dose: 0, 0.3, 2, 15 PPM 6 HR/D 5 D/WK FOR 28 MO (STUDY DURATION: 28 MO), Dose: 0, 0.3, 2, 15 PPM 6 HR/D 5 D/WK FOR 28 MO (STUDY DURATION: 28 MO), Tumor Site: Type of Lesion: NASAL CAVITY: SQUAMOUS CELL CARCINOMA, SQUAMOUS CELL PAPILLOMA",active; positive
same,carcinogen call,"Species: RAT, Strain/Sex: F344/MALE, Route: INHALATION, Dose: 0, 2, 6, 15 PPM, Dose: 0, 2, 6, 15 PPM, Tumor Site: Type of Lesion: NASAL TURBINATES: SQUAMOUS CELL CARCINOMA",active; positive
same,carcinogen call,"Species: RAT, Strain/Sex: SPRAGUE-DAWLEY/FEMALE, Route: ORAL, Dose: 0, 10, 50, 100, 500, 1000, 1500 PPM IN DRINKING WATER FOR 104 WK (STUDY DURATION: LIFETIME), Dose: 0, 10, 50, 100, 500, 1000, 1500 PPM IN DRINKING WATER FOR 104 WK (STUDY DURATION: LIFETIME), Tumor Site: Type of Lesion: LYMPHATIC SYSTEM: LEUKEMIA, GASTROINTESTINAL SYSTEM: TUMOR",active; positive
same,carcinogen call,"Species: RAT, Strain/Sex: SPRAGUE-DAWLEY/MALE, Route: INHALATION, Dose: 14.2 PPM 6 HR/DAY, 5 DAY/WK, Tumor Site: Type of Lesion: NASAL CAVITY: SQUAMOUS CELL CARCINOMA",active; positive
same,carcinogen call,"Species: RAT, Strain/Sex: SPRAGUE-DAWLEY/MALE, Route: ORAL, Dose: 0, 10, 50, 100, 500, 1000, 1500 PPM IN DRINKING WATER FOR 104 WK (STUDY DURATION: LIFETIME), Dose: 0, 10, 50, 100, 500, 1000, 1500 PPM IN DRINKING WATER FOR 104 WK (STUDY DURATION: LIFETIME), Tumor Site: Type of Lesion: LYMPHATIC SYSTEM: LEUKEMIA, GASTROINTESTINAL SYSTEM: TUMOR",active; positive
same,carcinogen call,"Species: RAT, Strain/Sex: WISTAR/FEMALE, Route: ORAL, Dose: 0, 1.8, 21 MG/KG IN DRINKING WATER FOR UP TO 24 MO (STUDY DURATION: 105 WK), Dose: 0, 1.8, 21 MG/KG IN DRINKING WATER FOR UP TO 24 MO (STUDY DURATION: 105 WK)",inactive; negative
same,carcinogen call,"Species: RAT, Strain/Sex: WISTAR/MALE, Route: INHALATION, Dose: 0, 0.1, 1.0, 10 PPM 6HR/D, 5D/WK FOR 3 MO (STUDY DURATION: 29 MO), Dose: 0, 0.1, 1.0, 10 PPM 6HR/D, 5D/WK FOR 3 MO (STUDY DURATION: 29 MO)",inactive; negative
same,carcinogen call,"Species: RAT, Strain/Sex: WISTAR/MALE, Route: INHALATION, Dose: 0, 0.1, 1.0, 10 PPM 6HR/D, 5D/WK FOR 28 MO (STUDY DURATION: 29 MO), Dose: 0, 0.1, 1.0, 10 PPM 6HR/D, 5D/WK FOR 28 MO (STUDY DURATION: 29 MO)",inactive; negative
same,carcinogen call,"Species: RAT, Strain/Sex: WISTAR/MALE, Route: ORAL, Dose: 0, 1.2, 15 MG/KG IN DRINKING WATER FOR UP TO 24 MO (STUDY DURATION: 105 WK), Dose: 0, 1.2, 15 MG/KG IN DRINKING WATER FOR UP TO 24 MO (STUDY DURATION: 105 WK)",inactive; negative
CC(=O)CN(N=O)C(N)=O,carcinogen call,"Species: RAT, Strain/Sex: F344/FEMALE, Route: GAVAGE, Dose: 0, 8 MG/ML IN CORN OIL/ETHYL ACETATE (2:1) 2/WK FOR 30 WK (STUDY DURATION: LIFETIME), Tumor Site: Type of Lesion: KIDNEY MESENCHYME: TUMOR, THYROID: FOLLICULAR TUMOR",active; positive
same,carcinogen call,"Species: RAT, Strain/Sex: F344/MALE, Route: GAVAGE, Dose: 0, 8 MG/ML IN CORN OIL/ETHYL ACETATE (2:1) 2/WK FOR 30 WK (STUDY DURATION: LIFETIME), Tumor Site: Type of Lesion: LUNG: TUMOR, MESOTHELIUM: TUMOR, KIDNEY MESENCHYME: TUMOR, Tumor Site: Type of Lesion: LUNG: TUMOR, MESOTHELIUM: TUMOR, KIDNEY MESENCHYME: TUMOR",active; positive
C[C@]12CC[C@@H]3c4ccc(OC(=O)Cc5ccc(N(CCCl)CCCl)cc5)cc4CC[C@H]3[C@@H]1CC[C@@H]2OC(=O)Cc1ccc(N(CCCl)CCCl)cc1,carcinogen call,"Species: MOUSE, Strain/Sex: B6C3F1/FEMALE, Route: GAVAGE, Dose: 0, 15, 30 MG/KG 3/WK FOR 52 WKS, Dose: 0, 15, 30 MG/KG 3/WK FOR 52 WKS, Tumor Site: Type of Lesion: LUNG: ALVEOLAR/BRONCHIOLAR ADENOMA OR CARCINOMA, LYMPHATIC SYSTEM: LYMPHOMA, MYOCARDIUM: SARCOMA, STOMACH, Tumor Site: Type of Lesion: LUNG: ALVEOLAR/BRONCHIOLAR ADENOMA OR CARCINOMA, LYMPHATIC SYSTEM: LYMPHOMA, MYOCARDIUM: SARCOMA, STOMACH",active; positive
same,carcinogen call,"Species: MOUSE, Strain/Sex: B6C3F1/MALE, Route: GAVAGE, Dose: 0, 15, 30 MG/KG 3/WK FOR 52 WKS, Dose: 0, 15, 30 MG/KG 3/WK FOR 52 WKS, Tumor Site: Type of Lesion: LUNG: ALVEOLAR/BRONCHIOLAR ADENOMA OR CARCINOMA, HEMATOPOIETIC SYSTEM (LEUKEMIA): LYMPHOCYTIC LEUKEMIA, LYMPHATIC SYSTEM, Tumor Site: Type of Lesion: LUNG: ALVEOLAR/BRONCHIOLAR ADENOMA OR CARCINOMA, HEMATOPOIETIC SYSTEM (LEUKEMIA): LYMPHOCYTIC LEUKEMIA, LYMPHATIC SYSTEM",active; positive
same,carcinogen call,"Species: RAT, Strain/Sex: SPRAGUE-DAWLEY/FEMALE, Route: GAVAGE, Dose: 0, 0.62, 1.25 MG/KG IN 0.05% POLYSORB 80 IN PHOS BUFF SALINE 3/WK FOR 52 WK, Dose: 0, 0.62, 1.25 MG/KG IN 0.05% POLYSORB 80 IN PHOS BUFF SALINE 3/WK FOR 52 WK",inactive; negative
same,carcinogen call,"Species: RAT, Strain/Sex: SPRAGUE-DAWLEY/MALE, Route: GAVAGE, Dose: 0, 0.62, 1.25 MG/KG IN 0.05% POLYSORB 80 IN PHOS BUFF SALINE 3/WK FOR 52 WK, Dose: 0, 0.62, 1.25 MG/KG IN 0.05% POLYSORB 80 IN PHOS BUFF SALINE 3/WK FOR 52 WK",inactive; negative
C=CCc1ccc2c(c1)OCO2,carcinogen call,"Species: MOUSE, Strain/Sex: B6AKF1/MALE,FEMALE, Route: GAVAGE, ORAL, Dose: 464 MG/KG FROM D 7-28 OF LIFE THEN 1112 MG/KG IN DIET, Tumor Site: Type of Lesion: LIVER: HEPATOCELLULAR TUMOR",active; positive
same,carcinogen call,"Species: MOUSE, Strain/Sex: B6C3F1/MALE,FEMALE, Route: GAVAGE, ORAL, Dose: 464 MG/KG FROM D 7-28 OF LIFE THEN 1112 MG/KG IN DIET, Tumor Site: Type of Lesion: LIVER: HEPATOCELLULAR TUMOR",active; positive
same,carcinogen call,"Species: MOUSE, Strain/Sex: BALB/MALE, Route: ORAL, Dose: 0, 4000 PPM IN DIET FOR 52 WK (STUDY DURATION: 75 WK), Tumor Site: Type of Lesion: LIVER: HEPATOCELLULAR CARCINOMA, HEPATOCELLULAR ADENOMA",active; positive
same,carcinogen call,"Species: MOUSE, Strain/Sex: CD-1/MALE, Route: ORAL, Dose: 4000, 5000 MG/KG IN DIET FOR 13 MO, Tumor Site: Type of Lesion: LIVER: HEPATOCELLULAR CARCINOMA",active; positive
same,carcinogen call,"Species: MOUSE, Strain/Sex: CD-1/MALE, Route: SUBCUTANEOUS, Dose: 0.66, 6.6 MG (TOTAL DOSES) IN TRICAPRYLIN IN 3 WK, Tumor Site: Type of Lesion: LIVER",active; positive
same,carcinogen call,"Species: MOUSE, Strain/Sex: SWISS/FEMALE, Route: SUBCUTANEOUS, Dose: 0.66, 6.6 MG (TOTAL DOSES) IN TRICAPRYLIN IN 3 WK, Tumor Site: Type of Lesion: LUNG: ADENOMA, ADENOCARCINOMA",active; positive
same,carcinogen call,"Species: MOUSE, Strain/Sex: SWISS/MALE, Route: SUBCUTANEOUS, Dose: 0.66, 6.6 MG (TOTAL DOSES) IN TRICAPRYLIN IN 3 WK, Tumor Site: Type of Lesion: LIVER: HEPATOMA",active; positive
same,carcinogen call,"Species: RAT, Strain/Sex: OSBORNE-MENDEL/MALE,FEMALE, Route: ORAL, Dose: 100, 500, 1000, 5000 MG/KG IN DIET FOR 2 YR, Dose: 100, 500, 1000, 5000 MG/KG IN DIET FOR 2 YR, Tumor Site: Type of Lesion: LIVER: HEPATOCELLULAR CARCINOMA, CHOLANGIOCARCINOMA",active; positive
CC1(C)O[C@@H]2C[C@H]3[C@@H]4CCC5=CC(=O)C=C[C@]5(C)[C@@]4(F)[C@@H](O)C[C@]3(C)[C@]2(C(=O)CO)O1,carcinogen call,"Species: RAT, Strain/Sex: SPRAGUE-DAWLEY/MALE, Route: ORAL, Dose: 0, 1.5 UG/ML IN DRINKING WATER FOR AN AVERAGE DAILY DOSE OF 12.7 UG/KG DURING WK10-20 THEN 4.8 UG/KG DURING WK 21-104 (S, Tumor Site: Type of Lesion: LIVER: HEPATOCELLULAR ADENOMA OR CARCINOMA",active; positive
